# Experimental data reported in US6964783B1, “Non-solid composition for local application” (Naturveda, priority 1999, dated 2005).
# System: 0.4×0.4 cm wound
# Assay: Wound healing in shaved rats after local application
# Assay type: in vivo
# Conditions: 0.2 ml applied on wound
# Description: 30 rats (IFFA-CREDO SPF weighing 200+/−20 g) were shaved (3×3 cm) on the right side of the back. A 0.4×0.4 cm wound was produced at the centre of the shaved area. 30 minutes after producing the small wound, the coagulated blood was removed and 0.2 ml of glycerine containing 3% Alchemilla vulgaris (preparation according to example 4) or 0.2 ml of pure glycerine (controls) were applied on ten animals. The ten other control rats received 0.2 ml of distilled water. The complete healing time and the healing index were determined each day for 10 days. The healing time was reduced by 48% with the treatment based on glycerine containing 3% Alchemilla vulgaris, with a healing index of 2.1 in the treated lot, compared to an index of 3.3 obtained with the control lot.
# With glycerine alone, the healing time was reduced by 26% with a healing index of 2.7.
structure (smiles),measurement,setting,value
"OCC(O)CO [glycerine alone, glycerine]",healing index,"determined each day for 10 days, control lot 3.3",2.7
same,healing time reduced by,"followed each day for 10 days, versus control lot",26%
